Legend:
Adenosine receptor A3 [1] = target: T1, Adenosine receptor A3 (Homo sapiens, UniProt P0DMS8); experiment: Effective concentration for stimulation of [35S]GTP-gamma-S, binding to human adenosine A3 receptor; format: functional
T1 sequence (P0DMS8 whole entry): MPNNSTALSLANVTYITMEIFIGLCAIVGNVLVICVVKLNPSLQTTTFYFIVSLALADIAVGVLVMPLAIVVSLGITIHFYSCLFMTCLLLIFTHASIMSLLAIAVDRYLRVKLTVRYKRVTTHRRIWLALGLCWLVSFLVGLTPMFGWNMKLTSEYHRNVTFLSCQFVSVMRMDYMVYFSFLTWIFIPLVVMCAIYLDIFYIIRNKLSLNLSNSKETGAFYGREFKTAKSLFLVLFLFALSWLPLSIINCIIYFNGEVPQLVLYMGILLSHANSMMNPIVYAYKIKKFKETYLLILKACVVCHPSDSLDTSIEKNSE

Adenosine receptor A3 [2] = target: T1, Adenosine receptor A3; experiment: Binding affinity at human Adenosine A3 receptor expressed in HEK 293 cells by [125I]AB-MECA displacement.; format: cell-based, HEK293
[3] = target: Adenosine receptor A2a (Rattus norvegicus) (UniProt P30543); experiment: Percentage displacement of [3H]-CGS- 21680 from Adenosine A2A receptor of rat striatal membranes at 10 uM; format: cell membranes; settings: Membrane
Sequence of Adenosine receptor A2a (Rattus norvegicus) (P30543 whole entry): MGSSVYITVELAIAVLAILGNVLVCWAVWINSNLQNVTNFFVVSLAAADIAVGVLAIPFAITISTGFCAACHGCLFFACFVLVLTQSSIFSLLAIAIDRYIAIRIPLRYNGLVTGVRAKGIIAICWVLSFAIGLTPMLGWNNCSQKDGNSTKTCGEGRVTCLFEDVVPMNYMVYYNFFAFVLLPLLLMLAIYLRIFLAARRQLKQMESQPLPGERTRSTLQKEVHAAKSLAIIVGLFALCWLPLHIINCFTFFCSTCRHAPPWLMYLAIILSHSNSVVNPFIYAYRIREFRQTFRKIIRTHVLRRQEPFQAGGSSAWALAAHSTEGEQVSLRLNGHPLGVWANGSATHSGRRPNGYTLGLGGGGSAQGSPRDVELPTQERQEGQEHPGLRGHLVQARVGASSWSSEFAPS

[4] = target: Adenosine receptors; A1 & A3 (Rattus norvegicus) (UniProt P25099+P28647); experiment: Ratio of displacement of A1 receptor to A3 receptor; format: protein assay
[5] = target: T2, Adenosine receptor A1 (Rattus norvegicus) (UniProt P25099); experiment: Percentage displacement of [3H]DPCPX from rat cortical membranes Adenosine A1 receptor at 10 uM; format: cell membranes; settings: Membrane
T2 sequence (whole entry): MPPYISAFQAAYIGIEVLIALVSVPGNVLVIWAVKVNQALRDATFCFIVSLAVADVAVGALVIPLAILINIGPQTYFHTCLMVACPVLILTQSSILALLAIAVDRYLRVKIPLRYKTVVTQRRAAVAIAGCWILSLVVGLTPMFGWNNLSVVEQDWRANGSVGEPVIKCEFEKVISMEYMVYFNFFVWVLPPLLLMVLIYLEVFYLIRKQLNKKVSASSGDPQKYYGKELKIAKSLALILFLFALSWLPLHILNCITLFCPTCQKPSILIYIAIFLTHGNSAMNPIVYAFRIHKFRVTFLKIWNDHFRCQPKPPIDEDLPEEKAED

[6] = target: T3, Adenosine receptor A3 (Homo sapiens) (UniProt P0DMS8); experiment: Inhibition of forskolin-stimulated cAMP production mediated by human adenosine A3 receptor expressed in CHO cells at 10 uM; format: functional, cell-based
T3 sequence (whole entry): T1 sequence (P0DMS8 whole entry)

[7] = target: T3, Adenosine receptor A3 (Homo sapiens); experiment: Percentage of [35S]GTP-gamma-S, binding to the human adenosine A3 receptor stimulated at 10E-4 M; format: functional
[8] = target: T3, Adenosine receptor A3 (Homo sapiens); experiment: Inhibition of forskolin-induced c-AMP production by adenosine A3 receptor with 10 uM NECA; format: functional
Adenosine receptor A2a [9] = target: T4, Adenosine receptor A2a (Rattus norvegicus, UniProt P30543); experiment: Displacement of [3H]-CGS- 21680 from Adenosine A2A receptor of rat striatal membranes; format: cell membranes, Membrane
T4 sequence (P30543 whole entry): as the sequence (P30543 whole entry) above

Adenosine receptor A1 = target: T5, Adenosine receptor A1 (Rattus norvegicus, UniProt P25099); experiment: Displacement of [3H]DPCPX from rat cortical membranes Adenosine A1 receptor; format: cell membranes, Membrane
T5 sequence (P25099 whole entry): T2 sequence (whole entry)

Adenosine receptor A3 [10] = target: T1, Adenosine receptor A3; experiment: Displacement of [125I]AB-MECA from human Adenosine A3 receptor expressed in HEK 293 cells; format: cell-based, HEK293
Adenosine receptor A2a [11] = target: T4, Adenosine receptor A2a; experiment: Displacement of [3H]-CGS- […] from Adenosine A2A receptor of rat striatal membranes; format: cell membranes, Membrane

CSC[C@H]1O[C@@H](n2cnc3c(NCc4ccccc4)ncnc32)[C@H](O)[C@@H]1O showed an EC50 (Adenosine receptor A3 [1]) of 473 nM, a Ki (Adenosine receptor A3 [2]) of 128 nM and a Displacement [3] of 25%. It also gave a Ratio [4] greater than 78.1, a Displacement [5] of 31% and an inhibition [6] of 60%. The Radioligand bound [7] was 52% and the inhibition [8] was 93%.
OC[C@H]1O[C@@H](n2cnc3c(NC4CCCC4)ncnc32)[C@H](O)[C@@H]1O [N6-CYCLOPENTYLADENOSINE] gave a Ki (Adenosine receptor A3 [2]) of 120 nM.
For O[C@@H]1[C@H](O)[C@@H](CCl)O[C@H]1n1cnc2c(NC3CCCC3)ncnc21, the Ki (Adenosine receptor A3 [2]) was 1290 nM and the Ratio [4] was 0.007.
Work on O[C@@H]1[C@H](O)[C@@H](CCl)O[C@H]1n1cnc2c(NCc3ccccc3)ncnc21 yielded a Ki (Adenosine receptor A2a [9]) of 641 nM, a Ki (Adenosine receptor A3 [2]) of 1860 nM and a Ratio [4] greater than 5.4. It also gave a Displacement [5] of 47% and a Radioligand bound [7] of 13%.
With CCNC(=O)[C@H]1O[C@@H](n2cnc3c(N)ncnc32)[C@H](O)[C@@H]1O the inhibition [6] was 100% and the Radioligand bound [7] was 100%.
OC[C@H]1O[C@@H](n2cnc3c(NCc4cccc(I)c4)ncnc32)[C@H](O)[C@@H]1O was tested, and the inhibition [6] was 86%, the Radioligand bound [7] was 56% and the inhibition [8] was 91%.
Work on COc1cccc(CNc2nc(Cl)nc3c2ncn3C2O[C@H](c3ccon3)[C@H](O)[C@@H]2O)c1 (some centres undefined) yielded a Ki (Adenosine receptor A3 [2]) of 31 nM.
With O[C@@H]1[C@H](O)[C@@H](CCl)O[C@H]1n1cnc2c(NCc3cccc(I)c3)ncnc21 the Ki (Adenosine receptor A2a [9]) was 457 nM, the Ki (Adenosine receptor A3 [2]) was 188 nM and the Ratio [4] was 1.4. It also gave a Ki (Adenosine receptor A1) of 270 nM and a Radioligand bound [7] of 8%.
CSC[C@H]1O[C@@H](n2cnc3c(NC4CCCC4)ncnc32)[C@H](O)[C@@H]1O was tested, and the Ki (Adenosine receptor A3 [2]) was 74 nM and the Ratio [4] was 0.8.
CC(C)SC[C@H]1O[C@@H](n2cnc3c(NCc4ccccc4)ncnc32)[C@H](O)[C@@H]1O was tested, and the Ki (Adenosine receptor A3 [2]) was 211 nM, the Displacement [3] was 6% and the Ratio [4] was greater than 47.4. For the same compound, the Displacement [5] was 14% and the Radioligand bound [7] was 22%.
CC(C)SC[C@H]1O[C@@H](n2cnc3c(NCc4cccc(I)c4)ncnc32)[C@H](O)[C@@H]1O showed a Ki (Adenosine receptor A3 [2]) of 46.3 nM, a Displacement [3] of 45% and a Ratio [4] greater than 216. The Displacement [5] was 35% and the Radioligand bound [7] was 16%.
Compound CCSC[C@H]1O[C@@H](n2cnc3c(NCc4ccccc4)ncnc32)[C@H](O)[C@@H]1O has a Ki (Adenosine receptor A3 [2]) of 159 nM, a Displacement [3] of 38% and a Ratio [4] greater than 62.9. The Displacement [5] was 29% and the Radioligand bound [7] was 19%.
In the case of CCSC[C@H]1O[C@@H](n2cnc3c(NCc4cccc(I)c4)ncnc32)[C@H](O)[C@@H]1O, the Ki (Adenosine receptor A2a [9]) is reported as 1080 nM, the Ki (Adenosine receptor A3 [2]) is reported as 17.5 nM and the Ratio [4] is reported as 41.1. It also gave a Ki (Adenosine receptor A1) of 720 nM and a Radioligand bound [7] of 21%.
In the case of CNC(=O)C[C@H]1OC(n2cnc3c(NCc4cccc(I)c4)nc(Cl)nc32)[C@@H](O)[C@H]1O (some centres undefined), the Ki (Adenosine receptor A3 [10]) is reported as 0.33 nM.
In the case of CC(C)SC[C@H]1O[C@@H](n2cnc3c(NC4CCCC4)ncnc32)[C@H](O)[C@@H]1O, the Ki (Adenosine receptor A3 [2]) is reported as 137 nM, the Ki (Adenosine receptor A2a [11]) is reported as 10.2 µM and the Ratio [4] is reported as 0.3. It also gave a Ki (Adenosine receptor A1) of 41 nM.
CNC(=O)[C@H]1OC(n2cnc3c(NCc4ccccc4)ncnc32)[C@@H](O)[C@H]1O (some centres undefined) was tested, and the Ki (Adenosine receptor A3 [2]) was 41 nM.
Compound CCCSC[C@H]1O[C@@H](n2cnc3c(NC4CCCC4)ncnc32)[C@H](O)[C@@H]1O has a Ki (Adenosine receptor A3 [2]) of 193 nM and a Ratio [4] of 0.39.
CCSC[C@H]1O[C@@H](n2cnc3c(NC4CCCC4)ncnc32)[C@H](O)[C@@H]1O was tested, and the Ki (Adenosine receptor A3 [2]) was 90 nM and the Ratio [4] was 0.5.
CSC[C@H]1O[C@@H](n2cnc3c(NCc4cccc(I)c4)ncnc32)[C@H](O)[C@@H]1O was tested, and the Ki (Adenosine receptor A2a [9]) was 1820 nM, the EC50 (Adenosine receptor A3 [1]) was 27 nM and the Ki (Adenosine receptor A3 [2]) was 8.78 nM. The Ratio [4] was 69.5, the Ki (Adenosine receptor A1) was 610 nM and the inhibition [6] was 64%. For the same compound, the Radioligand bound [7] was 41% and the inhibition [8] was 87%.
O[C@H]1[C@@H](c2ccon2)OC(n2cnc3c(NCc4cccc(I)c4)nc(Cl)nc32)[C@H]1O (some centres undefined) was tested, and the Ki (Adenosine receptor A3 [2]) was 7.8 nM.
CCCSC[C@H]1O[C@@H](n2cnc3c(NCc4ccccc4)ncnc32)[C@H](O)[C@@H]1O showed a Ki (Adenosine receptor A2a [9]) of 7990 nM, a Ki (Adenosine receptor A3 [2]) of 647 nM and a Ratio [4] of 8.7. It also gave a Ki (Adenosine receptor A1) of 5870 nM and a Radioligand bound [7] of 7%.
For OC[C@H]1O[C@@H](n2cnc3c(NCc4ccccc4)ncnc32)[C@H](O)[C@@H]1O [N6-BENZYLADENOSINE], the Ki (Adenosine receptor A2a [9]) was 733 nM, the EC50 (Adenosine receptor A3 [1]) was 384 nM and the Ki (Adenosine receptor A3 [2]) was 550 nM. The inhibition [6] was 82%, the Radioligand bound [7] was 81% and the inhibition [8] was 94%.
In the case of CCCSC[C@H]1O[C@@H](n2cnc3c(NCc4cccc(I)c4)ncnc32)[C@H](O)[C@@H]1O, the Ki (Adenosine receptor A3 [2]) is reported as 44.3 nM, the Displacement [3] is reported as 42% and the Ratio [4] is reported as greater than 226. For the same compound, the Displacement [5] was 42% and the Radioligand bound [7] was 10%.

From ChEMBL document CHEMBL1132635, “N6,5'-Disubstituted adenosine derivatives as partial agonists for the human adenosine A3 receptor” (J Med Chem, 1999)
